Measurements: patent publication US10633417B2 (priority 2013, dated 2020)

Columns and labels:
Sprague Dawley rats [1] = conditions: rat, in vivo
rat α9α10 nAChR = rat α9α10 nAChR (Rattus norvegicus, UniProt P43144+Q9JLB5); conditions: cited from earlier work
[2] = target: human α9 (Ile56 to Thr) α10 nAChR (Homo sapiens, UniProt Q9GZZ6+Q9UGM1, I86T); assay type: cell-based
Sprague-Dawley rats [3] = conditions: rat, in vivo
[4] = target: rat α9 (Thr56 to Ile) α10 nAChR (Rattus norvegicus, UniProt P43144+Q9JLB5, T86I); assay type: cell-based
Sprague-Dawley rats [5] = conditions: rat, in vivo; remark: listed apart in the source
Sprague Dawley rats [6] = conditions: rat, in vivo; remark: listed apart in the source
Sprague-Dawley rats [7] = conditions: rat, in vivo; remark: listed apart in the source
Sprague-Dawley rats [8] = conditions: rat, in vivo; remark: listed apart in the source

rat α9α10 nAChR, sequence (P43144 26-479 limits assumed): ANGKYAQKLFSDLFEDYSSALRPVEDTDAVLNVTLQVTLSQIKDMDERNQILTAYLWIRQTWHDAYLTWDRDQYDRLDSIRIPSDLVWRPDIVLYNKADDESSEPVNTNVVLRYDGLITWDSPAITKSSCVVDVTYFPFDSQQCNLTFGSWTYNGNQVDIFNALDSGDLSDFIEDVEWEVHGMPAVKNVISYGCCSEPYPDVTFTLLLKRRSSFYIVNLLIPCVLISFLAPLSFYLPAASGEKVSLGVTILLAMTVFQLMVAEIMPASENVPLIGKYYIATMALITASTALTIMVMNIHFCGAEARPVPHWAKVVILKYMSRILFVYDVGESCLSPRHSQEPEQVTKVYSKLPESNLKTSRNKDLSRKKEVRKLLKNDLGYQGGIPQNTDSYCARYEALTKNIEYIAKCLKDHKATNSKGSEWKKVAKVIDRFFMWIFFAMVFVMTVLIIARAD
rat α9α10 nAChR, sequence (Q9JLB5 25-447 limits assumed): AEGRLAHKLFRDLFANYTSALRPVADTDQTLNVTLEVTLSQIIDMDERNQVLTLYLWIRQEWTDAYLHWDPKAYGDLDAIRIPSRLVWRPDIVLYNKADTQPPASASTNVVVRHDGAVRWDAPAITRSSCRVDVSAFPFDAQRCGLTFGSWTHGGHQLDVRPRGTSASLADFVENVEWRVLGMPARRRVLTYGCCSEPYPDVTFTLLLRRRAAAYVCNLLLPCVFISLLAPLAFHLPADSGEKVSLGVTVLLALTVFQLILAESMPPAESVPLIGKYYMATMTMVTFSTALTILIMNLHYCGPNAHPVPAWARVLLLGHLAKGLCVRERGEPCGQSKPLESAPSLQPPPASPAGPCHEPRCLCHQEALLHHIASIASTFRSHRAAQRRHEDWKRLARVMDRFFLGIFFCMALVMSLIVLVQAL
human α9 (Ile56 to Thr) α10 nAChR, sequence (Q9UGM1 26-479 I86T limits assumed, stated change not applied): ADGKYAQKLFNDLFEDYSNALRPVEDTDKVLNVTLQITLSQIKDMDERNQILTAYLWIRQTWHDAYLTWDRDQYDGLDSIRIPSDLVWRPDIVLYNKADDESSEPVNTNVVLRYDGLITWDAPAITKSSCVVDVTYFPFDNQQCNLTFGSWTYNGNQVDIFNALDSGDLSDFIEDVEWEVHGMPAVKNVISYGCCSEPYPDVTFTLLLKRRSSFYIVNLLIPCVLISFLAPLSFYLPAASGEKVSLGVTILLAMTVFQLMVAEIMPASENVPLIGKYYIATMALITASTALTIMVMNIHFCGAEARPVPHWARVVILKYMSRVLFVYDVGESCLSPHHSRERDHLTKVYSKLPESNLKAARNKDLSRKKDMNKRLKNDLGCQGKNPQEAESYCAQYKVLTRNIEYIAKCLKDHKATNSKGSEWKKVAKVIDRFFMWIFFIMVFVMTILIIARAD
human α9 (Ile56 to Thr) α10 nAChR, sequence (Q9GZZ6 25-450 limits assumed, stated change not applied): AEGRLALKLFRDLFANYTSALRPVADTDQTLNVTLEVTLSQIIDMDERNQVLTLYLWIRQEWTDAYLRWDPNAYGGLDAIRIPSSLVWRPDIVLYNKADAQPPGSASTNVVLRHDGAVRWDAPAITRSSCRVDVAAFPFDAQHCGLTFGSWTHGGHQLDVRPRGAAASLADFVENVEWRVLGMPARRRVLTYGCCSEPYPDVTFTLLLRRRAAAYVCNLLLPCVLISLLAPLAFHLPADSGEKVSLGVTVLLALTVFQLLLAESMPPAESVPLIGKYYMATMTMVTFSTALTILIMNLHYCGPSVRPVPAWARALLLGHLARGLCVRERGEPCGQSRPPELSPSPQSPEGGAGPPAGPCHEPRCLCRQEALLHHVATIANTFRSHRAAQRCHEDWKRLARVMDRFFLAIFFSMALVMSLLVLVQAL
rat α9 (Thr56 to Ile) α10 nAChR, sequence (P43144 26-479 T86I limits assumed, stated change not applied): as the sequence (P43144 26-479 limits assumed) above, with T61I counted along it
rat α9 (Thr56 to Ile) α10 nAChR, sequence (Q9JLB5 25-447 limits assumed, stated change not applied): as the sequence (Q9JLB5 25-447 limits assumed) above

Substance	burn-induced thermal hyperalgesia (Hargraves method) (Sprague Dawley rats [1])	thermal hyperalgesia in the FTTI model, acute treatment (Sprague Dawley rats [1])	potency on the human versus rat α9α10 nAChR (rat α9α10 nAChR)	RgIA potency on human receptor with α9 Ile56 to Thr [2]	increase in RgIA potency on human receptor with α9 Ile56 to Thr [2] [log]	activity on mechanical allodynia (von Frey), days 14 and 21 (Sprague-Dawley rats [3])	analgesic effect (von Frey), day 7, 24 h later (Sprague-Dawley rats [3])	RgIA potency on rat receptor with Thr56 to Ile in α9 [4]	efficacy on mechanical hyperalgesia 24 h after injection (Sprague-Dawley rats [5])	pain threshold (mechanical hyperalgesia) 30 min after injection (Sprague-Dawley rats [5])	prevention of OXA-induced mechanical hyperalgesia (Sprague-Dawley rats [5])	mechanical allodynia in the FTTI model, acute treatment (Sprague Dawley rats [6])	prevention of OXA-induced cold allodynia, day 7 (Sprague-Dawley rats [7])	prevention of OXA-induced cold allodynia, day 14 and 21 (Sprague-Dawley rats [7])	analgesic effect in OXA chemotherapy induced neuropathic pain (Sprague-Dawley rats [8])
GCCSDPRCRYRCR [RgIA]	significantly reduced	effectively reduces	~170 fold	increase in RgIA potency on the human receptor to levels found in rat	2	active	not observed	reduction in RgIA potency on the rat receptor to levels found with the human receptor	still significant	acutely increased pain threshold	significantly prevented	effectively reduces	able to prevent OXA-induced cold allodynia	able to prevent OXA-induced cold allodynia	significant analgesic effects on days 14 and 21
Vc1.1			significantly less potent												
